# Read-outs that look alike come from different tables or passages of the source. Numbered stars: 1 amine (or outer) side, 2 acyl side, 3 side chain; on linkers, the order of the positions; unused ones are H or OH. Suc = O=C(CCC(=O)[*:2])[*:1]
# Columns and labels:
# [1] = tested on: Escherichia coli (ATCC 53868); assay: Disk diffusion assay (Kirby-Bauer), E. coli; type: cell-based; settings: disk potency 20 μg, 8 mm discs, 16-18 hours at 37° C.
# [2] = tested on: Staphilococcus aureus (ATCC 35556); assay: Disk diffusion assay (Kirby-Bauer), S. aureus; type: cell-based; settings: disk potency 20 μg, 8 mm discs, 16-18 hours at 37° C.
# [3] = Cellular viability (CellTiter Glo); type: cell-based; settings: human, MT-2 cells; 48 h, CellTiter Glo; read-out: CC50 (celular viability)
# [4] = tested on: HIV-1 (NL4.3-Ren); assay: microbe, parasite or virus in culture; type: cell-based; settings: for EC50: Human immunodeficiency virus 1, 48 h, read-out: EC50 (NL4.3-Ren)
# [5] = molecular target: RRE RNA hairpin (internal loop IIB); assay: SPR analysis of interaction with RRE RNA hairpin; type: binding, HIV-1
# [6] = molecular target: RRE-Rev34-50 interaction (RRE hairpin and frevp); assay: Fluorescence polarization displacement assay of the RRE-Rev34-50 interaction; type: binding, HIV-1
# [7] = molecular target: TARc hairpin; assay: SPR binding specificity relative to control TARc hairpin; parameters: species or system HIV-1
# Method: (§1) The interaction of these biphenyl and terphenyl compounds with the RRE RNA hairpin (SEQ. ID. No 1) was analysed using surface plasmon resonance (SPR) experiments(19). In addition to the RRE, two control RREc (SEQ. ID. No 2) and TARc (SEQ. ID. No 3) hairpins were also immobilised on the chips. In the RREc hairpin the internal loop forming the Rev high-affinity binding site is replaced with a G:G opposition, whereas in the TARc hairpin this loop is substituted with the HIV-1 Tat-binding UCU bulge(20). In this way, applicants could simultaneously assess the interaction of each ligand with RRE, RREc and TARc, obtaining important information about binding selectivity. In addition, the SPR methodology allows deduction of binding stoichiometries, which are likewise related to the specificity of the interaction between a ligand and a given RNA species. These are key considerations in the nucleic acid recognition field(4, 5, 14).
# (§2) The Surface Plasmon Resonance (SPR) experiments were carried out at 25° C. with a Biacore T100 optical biosensor system, 4-channel streptavidin-derivatized Series S SA chips, and either 10 mM MES (pH 6.25), 150 mM NaCl, 1 mM EDTA and 0.005% P20 or 10 mM HEPES pH 7.4, 150 mM NaCl, 3 mM EDTA and 0.005% P20 aqueous solutions as mobile phases. After immobilizing approximately 300 response units (RU) of the RRE, RREc and TARc RNA hairpins on the chips, the compounds were injected during 10-minute periods at a flow rate of 20 μL/min and at concentrations generally ranging from 0.01 μM to 100.0 μM, and then allowed to dissociate for 10 more minutes. The RNA surfaces were regenerated with solutions containing 0.5 to 1 M NaCl and 10 to 100 mM NaOH, depending on the ligand.
# (§3) RNA-ligand SPR equilibrium dissociation constants (Kd) were determined by fitting the sensorgrams to one-site or two-site equations:
# [formula] [formula] where RU is the response in the steady-state region of the sensorgrams, C is the concentration of free compound in equilibrium with the complex, RUmax is the maximum response and RI is an offset term accounting for the bulk refractive index contribution of the sample. In these models, Kd, RUmax and RI are adjustable parameters, and the stoichiometry of each binding site was determined by comparing the fitted RUmax values with the predicted ones, calculated from the molecular weights of RNA and compound and the amount of RNA in the flow cell(32). The two-site equation was only utilized if it provided a clear curve-fitting improvement over the one-site model. […] All SPR experiments were double-referenced(33).
# [8] = molecular target: RREc hairpin; assay: SPR binding specificity relative to control RREc hairpin; parameters: species or system HIV-1
# Method: as §1, §2, §3
# [formula] [formula] where RU is the response in the steady-state region of the sensorgrams, C is the concentration of free compound in equilibrium with the complex, RUmax is the maximum response and RI is an offset term accounting for the bulk refractive index contribution of the sample. In these models, Kd, RUmax and RI are adjustable parameters, and the stoichiometry of each binding site was determined by comparing the fitted RUmax values with the predicted ones, calculated from the molecular weights of RNA and compound and the amount of RNA in the flow cell(32). The two-site equation was only utilized if it provided a clear curve-fitting improvement over the one-site model. The specificity of the RRE interaction was quantified by calculating the Kd(RREc)/Kd(RRE) and […] ratios. All SPR experiments were double-referenced(33).
# [9] = tested on: MT-2 cells; assay: Cellular viability (CellTiter Glo); type: cell-based
# [10] = tested on: RRE hairpin; assay: Two-dimensional NMR (TOCSY) titration of the RRE hairpin; type: binding, HIV-1; settings: D2O, pH 6.0
# [11] = 25° C., pH 6.3, high affinity site when two-site model, JB-399 and IIS-530: ligand range 0.1-25 μM, read-out: Kd(RRE)
# [12] = read-out: IC50 (RRE-Rev 50% inhibitory concentration), fluorescence polarization, 25° C., 60 nM RRE and 10 nM frevp
# [13] = 25° C., pH 7.4, high affinity site when two-site model, footnote d compounds: ligand range 0.1-25 μM, read-out: Kd(RRE)
compound,measurement,setting,value
"CC1(C)S[C@@H]2[C@H](NC(=O)[C@H](N)c3ccccc3)C(=O)N2[C@H]1C(=O)O [Ampicillin, ampicillin]",disk susceptibility of E. coli (diameter of the inhibition area),[1],25.6 ± 1.7
same,disk susceptibility of S. aureus (diameter of the inhibition area),[2],38.1 ± 1.6
"COc1cc(CCN)c(-c2ccc(-c3cc(CCN)c(OCc4ccccc4)c(CCN)c3)c(OC)c2)c(CCN)c1 [IIS-311, 2,2′,2″,2′″-(4″-(benzyloxy)-3′,4-dimethoxy-[1,1′:4′,1″-terphenyl]-2,3″,5″,6-tetrayl)tetraethanamine]",CC50 at 48 h,[3],> 100 µM
same,EC50,[4],> 100 µM
same,Kd,[5]; [11],9.4 ± 5.7 µM
same,IC50,[6]; [12],162 ± 118 µM
same,Kd(TARc)/Kd(RRE),"[7]; 25° C., pH 6.3",3.2
same,Kd(RREc)/Kd(RRE),"[8]; 25° C., pH 6.3",4.9
"COc1cc(CCN)c(-c2ccc(-c3cc(CCN)c(OCc4ccc(C(F)(F)F)cc4)c(CCN)c3)c(OC)c2)c(CCN)c1 [IIS-478, 2,2′,2″,2′″-(3′,4-dimethoxy-4″-((4-(trifluoromethyl)benzyl)oxy)-[1,1′:4′,1″-terphenyl]-2,3″,5″,6-tetrayl)tetraethanamine]",disk susceptibility of E. coli (diameter of the inhibition area),[1],inactive
same,CC50 at 48 h,[3],> 100 µM
same,EC50,[4],> 100 µM
same,Kd,[5]; [13],14 ± 5.1 µM
same,IC50,[6]; [12],232 ± 32.7 µM
same,Kd(TARc)/Kd(RRE),"[7]; 25° C., pH 7.4",9.6
same,Kd(RREc)/Kd(RRE),"[8]; 25° C., pH 7.4",10.3
same,disk susceptibility of S. aureus (diameter of the inhibition area),[2],inactive
"COc1cc(CCN)c(-c2ccc(-c3cc(CCN)c(OCC4CCCCC4)c(CCN)c3)c(OC)c2)c(CCN)c1 [IIS-530, 2,2′,2″,2′″-(4″-(cyclohexylmethoxy)-3′,4-dimethoxy-[1,1′:4′,1″-terphenyl]-2,3″,5″,6-tetrayl)tetraethanamine]",CC50 at 48 h,[3],> 100 µM
same,EC50,[4],> 100 µM
same,Kd,[5]; [11],46.2 ± 32 µM
same,IC50,[6]; [12],75.5 ± 39.9 µM
same,Kd(TARc)/Kd(RRE),"[7]; 25° C., pH 6.3",4.0
same,Kd(RREc)/Kd(RRE),"[8]; 25° C., pH 6.3",1.3
"CCc1cc(-c2c(CCN)cc(OC)cc2CCN)ccc1-c1cc(CCN)c(O)c(CCN)c1 [IIS-792, 2″,3,5,6″-tetrakis(2-aminoethyl)-2′-ethyl-4″-methoxy-[1,1′:4′,1″-terphenyl]-4-ol]",cellular toxicity (in words),[9],no cellular toxicity
same,CC50 at 48 h,[3],> 100 µM
same,inhibition of HIV-1 replication (in words),[4],inhibited HIV-1 replication
same,EC50,[4],46.3 µM
same,Kd,[5]; [13],8.1 ± 1.8 µM
same,IC50,[6]; [12],93.6 ± 24.4 µM
same,Kd(TARc)/Kd(RRE),"[7]; 25° C., pH 7.4",1.6
same,Kd(RREc)/Kd(RRE),"[8]; 25° C., pH 7.4",1.2
"CCc1cc(-c2c(CCN)cc(OC)cc2CCN)cc(CC)c1-c1cc(CCN)c(O)c(CCN)c1 [IIS-806, 2″,3,5,6″-Tetrakis(2-aminoethyl)-2′,6′-diethyl-4″-methoxy-(1,1′:4′,1″-terphenyl)-4-ol chlorhydrate]",cellular toxicity (in words),[9],no cellular toxicity
same,CC50 at 48 h,[3],> 100 µM
same,RRE interaction by NMR chemical shift perturbation (in words),[10],greatest RNA chemical shift variations
same,inhibition of HIV-1 replication (in words),[4],inhibited HIV-1 replication
same,EC50,[4],64.1 µM
same,Kd,[5]; [13],8.1 ± 1.1 µM
same,IC50,[6]; [12],56.4 ± 13.5 µM
same,Kd(TARc)/Kd(RRE),"[7]; 25° C., pH 7.4",1.3
same,Kd(RREc)/Kd(RRE),"[8]; 25° C., pH 7.4",1.1
"COc1cc(CCN)c(-c2cc(CCN)c(O)c(CCN)c2)c(CCN)c1 [JB-398, 2′,3,5,6′-tetrakis(2-aminoethyl)-4′-methoxy-[1,1′-biphenyl]-4-ol]",CC50 at 48 h,[3],> 100 µM
same,RRE interaction by NMR chemical shift perturbation (in words),[10],weak
same,EC50,[4],> 100 µM
same,Kd,[5]; [11],31.1 ± 5 µM
same,IC50,"[6]; fluorescence anisotropy, read-out: IC50 (RRE-Rev34-50 inhibition)",22.1 µM
same,Kd(TARc)/Kd(RRE),"[7]; 25° C., pH 6.3",3.7
"COc1cc(CCN)c(-c2ccc(-c3cc(CCN)c(O)c(CCN)c3)cc2)c(CCN)c1 [JB-399, 2″,3,5,6″-tetrakis(2-aminoethyl)-4″-methoxy-[1,1′:4′,1″-terphenyl]-4-ol]",CC50 at 48 h,[3],> 100 µM
same,EC50,[4],> 100 µM
same,Kd,[5]; [11],14.4 ± 6.8 µM
same,IC50,[6]; [12],23.4 ± 3.6 µM
same,Kd(TARc)/Kd(RRE),"[7]; 25° C., pH 6.3",11.7
"NC[C@H]1O[C@H](O[C@H]2[C@H](O)[C@@H](O[C@H]3O[C@H](CO)[C@@H](O)[C@H](N)[C@H]3O)[C@H](N)C[C@@H]2N)[C@H](O)[C@@H](O)[C@@H]1O [Kanamycin A, kanamycin A]",disk susceptibility of E. coli (diameter of the inhibition area),[1],22.0 ± 2.0
same,disk susceptibility of S. aureus (diameter of the inhibition area),[2],16.5 ± 1.1
"NC[C@H]1O[C@H](O[C@H]2[C@H](O)[C@@H](O[C@H]3O[C@H](CO)[C@@H](O)[C@H](N)[C@H]3O)[C@H](N)C[C@@H]2N)[C@H](N)[C@@H](O)[C@@H]1O [Kanamycin B, kanamycin B]",disk susceptibility of E. coli (diameter of the inhibition area),[1],20.0 ± 2.1
same,disk susceptibility of S. aureus (diameter of the inhibition area),[2],16.7 ± 1.2
"COc1cc(CCN)c(-c2c(CCN)cc(OC)cc2CCN)c(CCN)c1 [SC-30, 2,2′,2″,2′″-(4,4′-dimethoxy-[1,1′-biphenyl]-2,2′,6,6′-tetrayl)tetraethanamine]",disk susceptibility of E. coli (diameter of the inhibition area),[1],inactive
same,CC50 at 48 h,[3],> 100 µM
same,RRE interaction by NMR chemical shift perturbation (in words),[10],unspecific
same,EC50,[4],50 to 100 µM
same,Kd,[5]; [11],> 100 µM
same,IC50,[6]; [12],309 ± 68.9 µM
same,disk susceptibility of S. aureus (diameter of the inhibition area),[2],inactive
"NC[C@H]1O[C@H](O[C@H]2[C@H](O)[C@@H](O[C@H]3O[C@H](CO)[C@@H](O)[C@H](N)[C@H]3O)[C@H](N)C[C@@H]2N)[C@H](N)C[C@@H]1O [Tobramycin, tobramycin]",disk susceptibility of E. coli (diameter of the inhibition area),[1],18.8 ± 2.2
same,disk susceptibility of S. aureus (diameter of the inhibition area),[2],17.6 ± 0.8
"succynyl-TRQARRNRRRRWRERQRAAAAR-amide (Suc-TRQARRNRRRRWRERQRAAAAR-NH2; SMILES C[C@H](NC(=O)[C@H](C)NC(=O)[C@H](C)NC(=O)[C@H](CCCNC(=N)N)NC(=O)[C@H](CCC(N)=O)NC(=O)[C@H](CCCNC(=N)N)NC(=O)[C@H](CCC(=O)O)NC(=O)[C@H](CCCNC(=N)N)NC(=O)[C@H](Cc1c[nH]c2ccccc12)NC(=O)[C@H](CCCNC(=N)N)NC(=O)[C@H](CCCNC(=N)N)NC(=O)[C@H](CCCNC(=N)N)NC(=O)[C@H](CCCNC(=N)N)NC(=O)[C@H](CC(N)=O)NC(=O)[C@H](CCCNC(=N)N)NC(=O)[C@H](CCCNC(=N)N)NC(=O)[C@H](C)NC(=O)[C@H](CCC(N)=O)NC(=O)[C@H](CCCNC(=N)N)NC(=O)[C@@H](NC(=O)CCC(=O)O)[C@@H](C)O)C(=O)N[C@@H](C)C(=O)N[C@@H](CCCNC(=N)N)C(N)=O) [revp, reference compound]",Kd,"[5]; one-site model, read-out: equilibrium dissociation constant Kd (RRE)",0.0042 ± 0.0034 µM
same,Ki,"[6]; calculated from IC50, read-out: Ki inhibition constant",0.0041 ± 0.0008 µM
same,Kd(TARc)/Kd(RRE),[7],4.4
same,Kd(RREc)/Kd(RRE),[8],14.5

# Reference: patent publication US9586943B2, “Bilaterally-substituted tricyclic compounds for the treatment of human immunodeficiency virus type-1 (HIV-1) infection and other diseases” (CENTRO DE INVESTIGACIÓN PRINCIPE FELIPE, priority 2013, dated 2017)
